Results on two molecules are retold here after patent US8666671B2, “Method for determining drug-molecular combinations that modulate and enhance the therapeutic safety and efficacy of biological or pharmaceutical drugs” (Enhanced Pharmaceuticals, Inc., priority 2007, dated 2014).

The test system of the test is rats. Description: In vivo response of rats (dP/dt, contractility of the heart) to Lopressor, dobutamine and Dob/Met. An excerpt: FIG. 2 presents empirical data of the in vivo response of rats to Lopressor® (the brand name for metoprolol used by Novartis Pharmaceuticals Corporation), dobutamine and the dobutamine/metoprolol specific combination ratio (Dob/Met);
The Lopressor® acts much like an inverse agonist or negative antagonist in that it produces a steep decrease in the animals' dP/dt, which is a measure of the contractility of the heart. Although in this experimental context metoprolol may be inhibiting the sympathetic tone of these animals due to the production of their endogenous catacholamines, it functions much like an inverse agonist or negative antagonist. The data is plotted as the dP/dt response versus the dosages of the drugs or combination (dobutamine with metoprolol, Dob/Met). The average beginning baseline response was about 7400 mmHg/sec. From this baseline, the Lopressor® decreased dP/dt to below 2000. For the agonist, dobutamine, the average response for the rats labeled 8-11 are plotted with the unfilled circles. At doses below about 50 micrograms/kg/min, the responses rise to a peak value of about 11000 mmHg/sec, but at further dosages these values decline to below 4000 mmHg/sec.
Examining the responses of metoprolol (Lopressor®) and dobutamine alone, one might think that in combination they would produce a more profound decline in the response to well below 2000 mmHg/sec. […] However, this method can predict these behaviors and is useful in determining other specific ratio combinations that produce a range of desirable responses in physiological systems.

Turning to `CC(CCc1ccc(O)cc1)NCCc1ccc(O)c(O)c1` (stereo not drawn) [dobutamine], under “rats 8-11, average response, doses above about 50 micrograms/kg/min”, the “dP/dt at further dosages (decline after peak)” value is “below 4000 mmHg/sec”. Also, the dP/dt peak value result (rats 8-11, average response, doses below about 50 micrograms/kg/min, baseline about 7400 mmHg/sec) is listed as “about 11000 mmHg/sec”.

Regarding `COCCc1ccc(OCC(O)CNC(C)C)cc1` (stereo not drawn) [Lopressor, metoprolol], the “dP/dt (contractility of the heart), decreased value” (rats, in vivo, average beginning baseline about 7400 mmHg/sec, four individual rats) is “below 2000 mmHg/sec”.
